We go through 3 compounds from publication PMC8279414, “Discovery and Synthesis of a Pyrimidine-Based Aurora Kinase Inhibitor to Reduce Levels of MYC Oncoproteins” (Journal of Medicinal Chemistry, 2021).

Read-outs that look alike come from different tables or passages of the source. Some results are limits rather than exact numbers.

Series [1] has as its target T1, human Aurora A (amino acids 123–401) (Homo sapiens, UniProt O14965).
T1 construct: N-terminal truncated human Aurora A (amino acids 123–401); GST; made in house; host or cells: Sf9 insect cells
T1 sequence (O14965 123-401): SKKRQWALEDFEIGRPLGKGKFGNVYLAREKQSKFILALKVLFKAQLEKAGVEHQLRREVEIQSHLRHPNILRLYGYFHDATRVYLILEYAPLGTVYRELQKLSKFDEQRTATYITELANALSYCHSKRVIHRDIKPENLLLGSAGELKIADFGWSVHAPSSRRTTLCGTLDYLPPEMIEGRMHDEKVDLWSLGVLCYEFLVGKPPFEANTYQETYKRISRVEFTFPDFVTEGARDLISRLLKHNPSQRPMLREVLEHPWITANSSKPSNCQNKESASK
Nature of the series: In vitro inhibition of Aurora A kinase activity (Kinase-Glo Plus Luminescent Kinase assay, ATP consumption). The format is biochemical. As to conditions: mean of 2–3 independent determinations ± SD; >100 = inhibition < 50% at 100 nM. The protocol: The inhibitory potency of the newly synthesized small molecules against Aurora A was first measured in ATP consumption assays using purified Aurora A protein.
The efficacy of the compounds as inhibitors of Aurora A kinase was assessed in vitro using the Kinase-Glo Plus Luminescent Kinase assay (Promega, USA), as described previously.[45] […] The resulting mixture was incubated at 25 °C for 20 min. A 70 μL aliquot of the mixture was transferred to a black microtiter plate.
(In Kinase-Glo more light means more ATP remaining.)

Series [2] has as its system MYCN in SK-N-BE(2). Nature of the series: Western blot analysis of MYCN protein level in SK-N-BE(2) cells. The format is cell-based. As to conditions: for SK-N-BE(2) MYCN, relative protein level: 1.0 μM of compound, mean ± SD, triplicate. The protocol:
(§1) Cancer cells were treated with each of the compounds at different compound concentrations. […] Each lysate was separated by sodium dodecyl sulfate polyacrylamide gel electrophoresis (SDS-PAGE), transferred to polyvinylidene fluoride (PVDF, Millipore, USA) membrane, and blotted with antibodies. […] After the blotting (0.2% casein, 1% BSA, or 5% nonfat milk), membranes were washed with blotting buffer (0.2% casein in 1× PBS or 1× TBST), and corresponding alkaline phosphatase (AP)- or horseradish peroxidase (HRP)-conjugated secondary antibodies (Sigma-Aldrich) were added. The blots were developed by chemiluminescence (PerkinElmer, USA).
Background: In western blotting, separated proteins are transferred to a membrane and probed.

Series [3] has as its system cMYC in NCI-H82. Nature of the series: Western blot analysis of cMYC protein level in NCI-H82 cells. In kind it is cell-based. As to conditions: for NCI-H82 cMYC, relative protein level: 1.0 μM of compound, mean ± SD, triplicate. The protocol: as §1
Series [4] has as its system NCI-H446 xenograft tumors. Nature of the series: In vivo xenograft tumor growth inhibition. Further details: species or system mice. The settings on record: IV 50 mg/kg, 5-on-2-off dosing schedule, two weeks, nude mice. As to the method: (§2) Male athymic nu/nu nude mice (BioLASCO, Taiwan) 6 weeks old were housed in sterile cages maintained under 12 h light/dark cycles with controlled temperature and humidity. Mice were inoculated subcutaneously with 1 × 10^6 NCI–H446 cells (ATCC@ HTB-171) resuspended in saline mixed with 50% Matrigel matrix (Corning, USA). The sizes of the xenografted tumors were measured by a digital caliper (GMC-190; Goldsun Electronics Co.) and calculated using the formula: tumor volume (mm^3) = length × (width)2/2. Body weight and tumor size were measured at least twice a week. When the xenograft tumor reached ≥200 mm^3 in size, mice were intravenous or orally administered with the vehicle (5% dimethylacetamide/95% PEG400) or the compounds on a 5-on-2-off dosing regimen for 2–4 weeks. Tumor growth was analyzed for a statistically significant difference using ANOVA, followed by the Student–Newman–Keuls test. P < 0.05 was considered a significant difference between groups.

For series [5], the system named is high-MYC expressing small-cell lung cancer (SCLC) cell lines. Nature of the series: Cell proliferation inhibition assay, cell lines not named singly. In kind it is cell-based. The settings on record: high-MYC expressing / cMYC-amplified SCLC cell lines, 72 h. The source says:
(§3) SCLC is an aggressive malignancy that accounts for around 10–15% of all lung cancers, for which no targeted therapy is currently available.[29],[30] SCLC cells are characterized by rapid proliferation, universal RB1 and TP53 inactivation, and high rates of MYC-family amplification.[31] A recent study of MYC amplification in 77 formalin-fixed paraffin-embedded SCLC tumor samples using chromogenic in situ hybridization identified amplification of the MYC-family oncogenes in 20% of the tumors.[32],[33] Thus, we evaluated the growth-inhibitory effects of 13 on nine different SCLC cell lines: five with cMYC amplification, one with MYCN amplification, one with MYCL amplification, and two with no MYC-family amplification.
(§4) The efficacy of the compounds as inhibitors of cancer cell proliferation was assessed using PrestoBlue Cell Viability Reagent (ThermoFisher Scientific, USA). Cells were seeded at a density of 5000–10,000 cells per well in 96-well plates. After 24 h, cells were treated with each compound at various concentrations (0–10 μM). IC50 values were computed based on a triplicate, eight-point titration. After 72 h of drug treatment, 10 μL of PrestoBlue Cell Viability Reagent was added to each well, and fluorescence signals were collected using a Wallac Vector 1420 multilabel counter (PerkinElmer, USA).

Series [6] can be described thus: Body weight of xenograft mice during treatment. The format is in vivo. As to conditions: IV 50 mg/kg, 5-on-2-off, during the treatment. The protocol:
as §2

The test system of series [7] is NCI-H2171. Nature of the series: Cell proliferation inhibition assay (PrestoBlue). In kind it is cell-based. The settings on record: Homo sapiens, NCI-H2171, 72 h; read-out: Compound 13 IC50 (half-proliferation inhibition concentration).
Description: as §3, §4

For series [8], the system named is NCI-H82. Nature of the series: Cell proliferation inhibition assay (PrestoBlue). In kind it is cell-based. The settings on record: Homo sapiens, NCI-H82, 72 h; read-out: Compound 13 IC50 (half-proliferation inhibition concentration).
Description: as §3, §4

Series [9] deals with NCI-H446. Nature of the series: Cell proliferation inhibition assay (PrestoBlue). The format is cell-based. As to conditions: Homo sapiens, NCI-H446, 72 h; read-out: Compound 13 IC50 (half-proliferation inhibition concentration).
Description: as §3, §4

For series [10], the system named is NCI-H211. Nature of the series: Cell proliferation inhibition assay (PrestoBlue). In kind it is cell-based. The settings on record: Homo sapiens, NCI-H211, 72 h; read-out: Compound 13 IC50 (half-proliferation inhibition concentration).
Description: as §3, §4

Series [11] relates to NCI-H524. Nature of the series: Cell proliferation inhibition assay (PrestoBlue). In kind it is cell-based. As to conditions: Homo sapiens, NCI-H524, 72 h; read-out: Compound 13 IC50 (half-proliferation inhibition concentration).
Description: as §3, §4

Series [12] deals with NCI-H146. Nature of the series: Cell proliferation inhibition assay (PrestoBlue). In kind it is cell-based. The settings on record: NCI-H146 (MYC-unamplified), read-out: Compound 13 IC50 (half-proliferation inhibition concentration).
Description: as §3, §4

With `CCN1CCN(c2cc(Nc3cc(C)[nH]n3)nc(N[C@H]3CCN(C(=O)c4cc(Cl)ccc4F)C3)n2)CC1` [Compound 12, (S)-(5-Chloro-2-fluorophenyl) (3-((4-(4-ethylpiperazin-1-yl)-6-((5-methyl-1H-pyrazol-3-yl)amino)pyrimidin-2-yl)amino)pyrrolidin-1-yl)methanone], in [1], the IC50 was determined as 45.8 ± 1.4 nM. The “SK-N-BE(2) MYCN, relative protein level” value in series [2] (24 h) stood at 0.734 ± 0.104. In addition, the “NCI-H82 cMYC, relative protein level” value in [3] (24 h) is given as 0.559 ± 0.119.
Turning to `CCN1CCN(c2cc(Nc3cc(C)[nH]n3)nc(N[C@H]3CCN(C(=O)c4ccc(Cl)c(F)c4)C3)n2)CC1` [Compound 10, (S)-(4-Chloro-3-fluorophenyl) (3-((4-(4-ethylpiperazin-1-yl)-6-((5-methyl-1H-pyrazol-3-yl)amino)pyrimidin-2-yl)amino)pyrrolidin-1-yl)methanone], in series [1], the IC50 turned out to be 52.2 ± 8.1 nM. The “SK-N-BE(2) MYCN, relative protein level” value in [2] (24 h) turned out to be 0.578 ± 0.135. In addition, the “NCI-H82 cMYC, relative protein level” value in series [3] (24 h) was determined as 0.715 ± 0.048.
`CCN1CCN(c2cc(Nc3cc(C)[nH]n3)nc(N[C@H]3CCN(C(=O)c4ccc(Cl)cc4F)C3)n2)CC1` [Compound 13, (S)-(4-Chloro-2-fluorophenyl) (3-((4-(4-ethylpiperazin-1-yl)-6-((5-methyl-1H-pyrazol-3-yl)amino)pyrimidin-2-yl)amino)pyrrolidin-1-yl)methanone] had a tumor growth inhibition in series [4] of over 90%. The IC50 in series [5] is under 200 nM; in series [1] it was 38.6 ± 7 nM; in series [7], 27.1 nM; in series [8], 51.7 nM; in series [9] it was 120 nM; in [10], 105 nM. The IC50 in [11] was 3.36 nM; in series [12] (Homo sapiens, NCI-H146, 72 h), 1180 nM; in series [12] (72 h), over 1000 nM. In series [6], the body weight change result is “less than 5%”. Further, the “reduction of MYCN level” value in series [2] (1.0 μM) was over 50%. The “SK-N-BE(2) MYCN, relative protein level” value in series [2] (24 h) is listed as 0.487 ± 0.066. Besides, the “effect on MYCN protein level in SK-N-BE(2)” value in [2] (various concentrations, 24 h) is “dose-dependent loss”. Moreover, the “reduction of cMYC level” value in series [3] (1.0 μM) was over 50%. For the same compound, in [3] (24 h), the “NCI-H82 cMYC, relative protein level” value was 0.475 ± 0.023. In [3] (various concentrations, 24 h), the “effect on cMYC protein level in NCI-H82” value was “dose-dependent loss”.
